Assay results as given in patent US20060018864A1, “Cosmetic preparation containing glycerylamino acid derivative” (priority 2002, published 2006).
Read-outs that look alike come from different tables or passages of the source.

Legend:
[1] = tested on: skin (forearm of panelists); test: Moisturizing effect on skin: skin conductance (SKICON200-EX) on forearm of panelists; type: in vivo, human; conditions: for change in vivo at 5 %: Homo sapiens, topical, 20 min, read-out: Moisturizing effect on skin
Procedure: Evaluation was carried out in a manner that forearm of panelists was washed and then applied with 100 μl of aqueous amino acid N-glyceryl derivative solution prepared in 5% concentration. Then, conductance value of the skin was measured by SKICON200-EX (manufactured by IBS K. K.) before the application and in 20 minutes elapsed after the application.
Moisturizing effect on skin was evaluated by the following criteria.
Moisturizing effect on skin rating criteria • ◯: Conductance changing ratio is 10% more • □: Conductance changing ratio is 3% or more and less than 10% • X: Conductance changing ratio is less than 3.

[2] = Moisture-absorption ability measurement employing keratin powder (ground wool); type: physicochemical; conditions: keratin powder with sample, 20° C., 79.2% relative humidity, 48 hours; absorbed water per 1 g of keratin powder
Procedure: [Method of Moisture-Absorption Ability Measurement Carried Out by Employing Keratin Powder (Ground Wool)]
Moisture-absorption ability was evaluated by the following criteria.
Moisture-absorption ability rating criteria • ⊚: Amount of absorbed water per 1 g of keratin powder is 0.60 g or more. • ◯: Amount of absorbed water per 1 g of keratin powder is 0.50 g or more and less than 0.60 g • Δ: Amount of absorbed water per 1 g of keratin powder is 0.40 g or more and less than 0.50 g • X: Amount of absorbed water per 1 g of keratin powder is less than 0.40 g [Method of Moisturizing Effect Measurement Carried Out by Employing Keratin Powder (Ground Wool)]

[3] = Moisturizing effect measurement employing keratin powder (ground wool); type: physicochemical; conditions: (B/A)×100: water retained after further 6 hours at 20° C., 20.0% relative humidity, relative to water absorbed at 79.2% relative humidity for 48 hours
Procedure: For the constant-humidity bath under 20.0% of relative humidity, saturated aqueous potassium acetate solution was employed.
Moisturizing effect was evaluated by the following criteria,
Moisturizing effect rating criteria • ⊚: 60 or more • ◯: 50 or more and less than 60 • Δ: 40 or more and less than 50 • X: Less than 40

[4] = Stability evaluation: odor of sample solution after storage at 50° C. for 1 month; conditions: for Formation of homogeneous solution of sample: 5% by weight sample solution for stability evaluation; for Stability: 5% by weight sample solution, sealed, 50° C., 1 month, odor, average of 5 panelists (3: no degradation odor, 1: strong degradation odor)
Text: [Method of Stability Evaluation]
After 1 month being elapsed, the sealing was opened, followed by odor of samples being evaluated by 5 panelists according to the following criteria.
Odor rating criteria • 3: No degradation odor • 2: Almost no degradation odor • 1: Strong degradation odor
Odor evaluation value of each sample was the average of values determined by 5 panelists; the evaluation result was represented by the following marks rated according to respective criteria. • ∘: 2.4 or more and less than 3 • □: 1.8 or more and less than 2.4 • X: Less than 1.8

[5] = 100 μl of 5% aqueous solution on washed forearm, ten panelists, conductance changing ratio before vs 20 minutes after application

| Molecule | Moisturizing effect on skin [1, 5] | Moisture-absorption ability [2] | Moisturizing effect [3] | change in vivo at 5 % [1, 5] [%] | Formation of homogeneous solution of sample [4] | Stability [4] | change in vivo at 5 % [1] [%] |
| --- | --- | --- | --- | --- | --- | --- | --- |
| CC(C)C[C@H](NCC(O)CO)C(=O)O (stereo partly drawn) [Glyceryl derivative of leucine, N-glycervylleucine] | ◯ (Conductance changing ratio is 10% more) | ⊚ (Amount of absorbed water per 1 g of keratin powder is 0.60 g or more) | ◯ (50 or more and less than 60) | – | – | – | – |
| CC(C)C[C@H](N)C(=O)O [Leucine] | – | – | – | < 3 | did not form homogeneous solution | Δ | – |
| O=C(O)[C@@H]1CCCN1 [Proline] | Δ | ◯ (Amount of absorbed water per 1 g of keratin powder is 0.50 g or more and less than 0.60 g) | ◯ (50 or more and less than 60) | – | – | – | – |
| O=C(O)[C@H](Cc1ccccc1)NCC(O)CO (stereo partly drawn) [Glyceryl derivative of phenylalanine, N-glycerylphenylalanine] | – | ⊚ (Amount of absorbed water per 1 g of keratin powder is 0.60 g or more) | ◯ (50 or more and less than 60) | > 10 | – | ◯ | – |
| C[C@H](NCC(O)CO)C(=O)O (stereo partly drawn) [Glyceryl derivative of alanine, N-glycerylalanine] | – | ⊚ (Amount of absorbed water per 1 g of keratin powder is 0.60 g or more) | ◯ (50 or more and less than 60) | > 10 | – | Δ | – |
| N[C@@H](CC(=O)[O-])C(=O)[O-].O.[Na+].[Na+] [Sodium aspartate hydrate] | Δ | Δ (Amount of absorbed water per 1 g of keratin powder is 0.40 g or more and less than 0.50 g) | Δ (40 or more and less than 50) | – | – | Δ | – |
| OCC(O)CO [Glycerin] | – | ◯ (Amount of absorbed water per 1 g of keratin powder is 0.50 g or more and less than 0.60 g) | ◯ (50 or more and less than 60) | – | – | ◯ | – |
| NCC(=O)O [Glycine] | Δ | Δ (Amount of absorbed water per 1 g of keratin powder is 0.40 g or more and less than 0.50 g) | Δ (40 or more and less than 50) | – | – | – | – |
| O=C(O)[C@@H]1CCCN1CC(O)CO (stereo partly drawn) [Glyceryl derivative of proline, N-glycerylproline] | – | ⊚ (Amount of absorbed water per 1 g of keratin powder is 0.60 g or more) | ⊚ (60 or more) | > 10 | – | Δ | – |
| C[C@H](N)C(=O)O [Alanine] | – | – | – | – | – | X (Less than 1.8) | – |
| O=C(O)CNCC(O)CO (stereo not drawn) [Glyceryl derivative of glycine, N-glycerylglycine] | – | ⊚ (Amount of absorbed water per 1 g of keratin powder is 0.60 g or more) | ⊚ (60 or more) | > 10 | – | Δ | – |
| N[C@@H](CCC(=O)[O-])C(=O)[O-].O.[Na+].[Na+] [Sodium glutamate hydrate] | – | Δ (Amount of absorbed water per 1 g of keratin powder is 0.40 g or more and less than 0.50 g) | Δ (40 or more and less than 50) | – | – | Δ | > 10 |
| CN(CC(=O)O)CC(O)CO (stereo not drawn) [Glyceryl derivative of sarcosine, N-glyaerylsarcosine] | ◯ (Conductance changing ratio is 10% more) | ⊚ (Amount of absorbed water per 1 g of keratin powder is 0.60 g or more) | ⊚ (60 or more) | – | – | – | – |
| CC(O)CCO (stereo not drawn) [1,3-Butylene glycol] | Δ | Δ (Amount of absorbed water per 1 g of keratin powder is 0.40 g or more and less than 0.50 g) | Δ (40 or more and less than 50) | – | – | Δ | – |
| O=C([O-])CC[C@H](NCC(O)CO)C(=O)[O-].[Na+].[Na+] (stereo partly drawn) [Glyceryl derivative of glutamic acid, sodium N-glycerylglutamate] | ⊚ | ⊚ (Amount of absorbed water per 1 g of keratin powder is 0.60 g or more) | ⊚ (60 or more) | – | – | ◯ | – |
| Cl.N=C(N)NCCC[C@H](N)C(=O)O [Arginine hydrochloride] | – | ◯ (Amount of absorbed water per 1 g of keratin powder is 0.50 g or more and less than 0.60 g) | ◯ (50 or more and less than 60) | – | – | ◯ | > 10 |
| Cl.NCCCC[C@H](N)C(=O)O [Lysine hydrochloride] | Δ | Δ (Amount of absorbed water per 1 g of keratin powder is 0.40 g or more and less than 0.50 g) | Δ (40 or more and less than 50) | – | – | Δ | – |
| Cl.O=C(O)[C@H](Cc1c[nH]cn1)NCC(O)CO (stereo partly drawn) [Glyceryl derivative of histidine, M-glycerylhistidine hydrochloride] | ⊚ | ⊚ (Amount of absorbed water per 1 g of keratin powder is 0.60 g or more) | ⊚ (60 or more) | – | – | – | – |
| N[C@@H](Cc1ccccc1)C(=O)O [Phenylalanine] | – | X (Amount of absorbed water per 1 g of keratin powder is less than 0.40 g) | X (Less than 40) | < 3 | did not form homogeneous solution | Δ | – |
| CNCC(=O)O [Sarcosine] | – | Δ (Amount of absorbed water per 1 g of keratin powder is 0.40 g or more and less than 0.50 g) | Δ (40 or more and less than 50) | < 3 | – | Δ | – |
| Cl.N[C@@H](Cc1cnc[nH]1)C(=O)O [Histidine hdrochloride] | Δ | Δ (Amount of absorbed water per 1 g of keratin powder is 0.40 g or more and less than 0.50 g) | Δ (40 or more and less than 50) | – | – | – | – |
| 1 sodium N-glycerylaspartate [Glyceryl derivative of aspartic acid] | ⊚ | – | – | – | – | – | – |
| Cl.NCCCC[C@H](NCC(O)CO)C(=O)O (stereo partly drawn) [Glyceryl derivative of lysine, N-glyceryllysine hydrochloride] | ⊚ | ⊚ (Amount of absorbed water per 1 g of keratin powder is 0.60 g or more) | ⊚ (60 or more) | – | – | Δ | – |
| O=C(O)[C@H](CO)NCC(O)CO (stereo partly drawn) [Glyceryl derivative of serine, N-glycerylserine] | – | ⊚ (Amount of absorbed water per 1 g of keratin powder is 0.60 g or more) | ⊚ (60 or more) | > 10 | – | ◯ | – |
| N[C@@H](CO)C(=O)O [Serine] | – | Δ (Amount of absorbed water per 1 g of keratin powder is 0.40 g or more and less than 0.50 g) | Δ (40 or more and less than 50) | < 3 | – | – | – |
| Cl.N=C(N)NCCC[C@H](NCC(O)CO)C(=O)O (stereo partly drawn) [Glyceryl derivative of arginine, N-glycerylarginine hydrochloride] | ⊚ | ⊚ (Amount of absorbed water per 1 g of keratin powder is 0.60 g or more) | ⊚ (60 or more) | – | – | ⊚ | – |
